# Reference: publication PMC12646670, “Fatty acid transport protein 2 inhibition enhances glucose tolerance through α cell–mediated GLP-1 secretion” (The Journal of Clinical Investigation, 2025)
# Target: T1, FATP2 (Mus musculus, UniProt O35488)
# T1 construct: gene Slc27a2; endogenous full-length FATP2 in native mouse αTC1-6 pancreatic α cell line (ATCC)
# Assay: BODIPY-labelled C18 fatty acid uptake (QBT fluorescence assay)
# Format: cell-based
# Details: native αTC1-6 cells; 1 h preincubation, 37°C; 2.5 μM BODIPY-C18 fatty acid with 0.2% fatty acid-free albumin; uptake read at 60 s
# Source text: BODIPY-labelled C18 fatty acid uptake (QBT fluorescence assay) on FATP2 | fatty acid uptake was blocked by the FATP2 inhibitor lipofermata
# T1 sequence (O35488 whole entry): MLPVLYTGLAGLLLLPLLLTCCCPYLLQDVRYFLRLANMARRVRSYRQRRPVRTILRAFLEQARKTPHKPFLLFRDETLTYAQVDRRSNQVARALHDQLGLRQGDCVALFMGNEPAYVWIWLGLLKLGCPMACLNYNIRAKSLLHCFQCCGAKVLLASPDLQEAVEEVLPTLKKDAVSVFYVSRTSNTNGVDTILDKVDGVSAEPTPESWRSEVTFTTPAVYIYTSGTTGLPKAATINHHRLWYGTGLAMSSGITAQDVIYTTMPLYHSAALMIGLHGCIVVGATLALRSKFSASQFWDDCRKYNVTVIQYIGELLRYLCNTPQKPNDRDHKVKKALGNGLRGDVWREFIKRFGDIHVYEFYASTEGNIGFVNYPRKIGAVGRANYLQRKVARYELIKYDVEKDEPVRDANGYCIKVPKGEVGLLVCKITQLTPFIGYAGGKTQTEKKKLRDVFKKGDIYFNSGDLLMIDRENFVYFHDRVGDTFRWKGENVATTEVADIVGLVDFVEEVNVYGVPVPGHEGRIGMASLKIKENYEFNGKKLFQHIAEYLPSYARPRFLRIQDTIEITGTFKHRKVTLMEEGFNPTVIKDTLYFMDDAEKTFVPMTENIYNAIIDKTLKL
smiles,measurement,value
"O=C1Nc2ccc(Br)cc2C12NN=C(c1ccccc1)S2 (stereo not shown) [lipofermata, 5-bromo-5′-phenylspiro[3H-1,3,4-thiadiazole-2,3′-indoline]-2-1]",IC50,5.4 µM
